Peptide exchange data for 52 substances are collected here from US10058598B2, “Peptides and combination of peptides for use in immunotherapy against various cancers” (immatics biotechnologies GmbH, priority 2015, dated 2018).

One experiment deals with HLA-A*02. Nature of the experiment: MHC binding assay: UV-ligand exchange and beta2m ELISA, peptide exchange yield. The conditions noted are these: binding to HLA-A*02, UV-ligand exchange, β2m ELISA. Further details: species or system human. The source says: (§1) Candidate peptides for T cell based therapies according to the present invention were further tested for their MHC binding capacity (affinity). The individual peptide-MHC complexes were produced by UV-ligand exchange, where a UV-sensitive peptide is cleaved upon UV-irradiation, and exchanged with the peptide of interest as analyzed. Only peptide candidates that can effectively bind and stabilize the peptide-receptive MHC molecules prevent dissociation of the MHC complexes. To determine the yield of the exchange reaction, an ELISA was performed based on the detection of the light chain (β2m) of stabilized MHC complexes. The assay was performed as generally described in Rodenko et al. (Rodenko et al., 2006).
(§2) 96 well MAXISorp plates (NUNC) were coated over night with 2 ug/ml streptavidin in PBS at room temperature, washed 4× and blocked forl h at 37° C. in 2% BSA containing blocking buffer. Refolded HLA-A*02:01/MLA-001 monomers served as standards, covering the range of 15-500 ng/ml. Peptide-MHC monomers of the UV-exchange reaction were diluted 100 fold in blocking buffer. Samples were incubated for 1 h at 37° C., washed four times, incubated with 2 ug/ml HRP conjugated anti-β2m for 1 h at 37° C., washed again and detected with TMB solution that is stopped with […]. Absorption was measured at 450 nm. Candidate peptides that show a high exchange yield (preferably higher than 50%, most preferred higher than 75%) are generally preferred for a generation and production of antibodies or fragments thereof, and/or T cell receptors or fragments thereof, as they show sufficient avidity to the MHC molecules and prevent dissociation of the MHC complexes.
As to “126 (QMFQYFITV; listed as Homo sapiens) [compound 126]”, the Peptide exchange entry is given as “++++ (> = 75% = ++++)”.
Same read-out and setting: the same measure for “245 (SLLDLPLSL; listed as Homo sapiens) [compound 245]”: “++++ (> = 75% = ++++)”.
Turning to “34 (FLLATEVVTV; listed as Homo sapiens) [compound 34]”, the Peptide exchange result is reported as “++++ (> = 75% = ++++)”.
On the same count and under the same terms, the same measure for “133 (ALLPRLHQL; listed as Homo sapiens) [compound 133]”: “++++ (> = 75% = ++++)”.
On to “1 (LLYPEPWSV; listed as Homo sapiens) [compound 1]”, for which the Peptide exchange result is given as “++++ (> = 75% = ++++)”.
As for “82 (FIFDEAEKL; listed as Homo sapiens) [compound 82]”, the Peptide exchange result is “+ (<20% = +)”.
Take “16 (YTLDIPVLFGV; listed as Homo sapiens) [compound 16]”: the Peptide exchange entry is “++++ (> = 75% = ++++)”.
“120 (VTPVTVSAV; listed as Homo sapiens) [compound 120]”: the Peptide exchange entry is listed as “+ (<20% = +)”.
On to “147 (YLMDDTVEI; listed as Homo sapiens) [compound 147]”, for which the Peptide exchange result is listed as “++++ (> = 75% = ++++)”.
The same measure, in the same setting: to “248 (YLDRFLAGV; listed as Homo sapiens) [compound 248]” belongs “++++ (> = 75% = ++++)”; to “84 (ALCPRIHEV; listed as Homo sapiens) [compound 84]”, “++++ (> = 75% = ++++)”.
On the same count and under the same terms, the same measure for “3 (KLEENGDLYL; listed as Homo sapiens) [compound 3]”: “++++ (> = 75% = ++++)”; for “100 (ALLGMIIVGV; listed as Homo sapiens) [compound 100]”: “+ (<20% = +)”; for “92 (GLLFSLRSV; listed as Homo sapiens) [compound 92]”: “++++ (> = 75% = ++++)”.
On the same count and under the same terms, to “51 (LLFSRLCGA; listed as Homo sapiens) [compound 51]” belongs “++++ (> = 75% = ++++)”.
Take “14 (ILAKDLFEI; listed as Homo sapiens) [compound 14]”: the Peptide exchange entry is listed as “++++ (> = 75% = ++++)”.
The same measure, in the same setting: the same measure for “229 (AILAHLNTV; listed as Homo sapiens) [compound 229]”: “++++ (> = 75% = ++++)”.
“153 (FISERVEVV; listed as Homo sapiens) [compound 153]”: the Peptide exchange result was “++++ (> = 75% = ++++)”.
On the same count and under the same terms, the same measure for “42 (LLDSVSRL; listed as Homo sapiens) [compound 42]”: “+ (<20% = +)”.

In the next experiment the test system is HLA-A*24. The experiment is described as above. Also on record: species or system human. The conditions noted are these: binding to HLA-A*24, UV-ligand exchange, β2m ELISA.
Excerpt: as §1, §2
As to “186 (IFPQFLYQF; listed as Homo sapiens) [compound 186]”, the Peptide exchange result was “++++ (> = 75% = ++++)”.
In the case of “161 (IYLVSIPEL; listed as Homo sapiens) [compound 161]”, the Peptide exchange result is listed as “++++ (> = 75% = ++++)”.
For “217 (FFPPTRQMGLLF; listed as Homo sapiens) [compound 217]”, the Peptide exchange result was “++++ (> = 75% = ++++)”.
The same measure, in the same setting: the same measure for “160 (VYTLDIPVL; listed as Homo sapiens) [compound 160]”: “++++ (> = 75% = ++++)”.
As for “192 (SYALLTYMI; listed as Homo sapiens) [compound 192]”, the Peptide exchange result is reported as “++++ (> = 75% = ++++)”.
The same measure, in the same setting: to “210 (IYTMIYRNL; listed as Homo sapiens) [compound 210]” belongs “++++ (> = 75% = ++++)”; to “166 (YYVESGKLF; listed as Homo sapiens) [compound 166]”, “++++ (> = 75% = ++++)”; to “195 (TYSVSFPMF; listed as Homo sapiens) [compound 195]”, “++++ (> = 75% = ++++)”.
In the case of “193 (RFHPTPLLL; listed as Homo sapiens) [compound 193]”, the Peptide exchange result was “++++ (> = 75% = ++++)”.
Turning to “168 (KYQDILETI; listed as Homo sapiens) [compound 168]”, the Peptide exchange result is on record as “++++ (> = 75% = ++++)”.
The same measure, in the same setting: the same measure for “271 (LYHDIFSRL; listed as Homo sapiens) [compound 271]”: “++++ (> = 75% = ++++)”; for “202 (VYWDSAGAAHF; listed as Homo sapiens) [compound 202]”: “++++ (> = 75% = ++++)”.
On to “274 (AYLHSHALI; listed as Homo sapiens) [compound 274]”, for which the Peptide exchange entry was “++++ (> = 75% = ++++)”.
In the case of “216 (QYSSVFKSL; listed as Homo sapiens) [compound 216]”, the Peptide exchange result was “++++ (> = 75% = ++++)”.
Same read-out and setting: the same measure for “272 (QYLQDAYSF; listed as Homo sapiens) [compound 272]”: “++++ (> = 75% = ++++)”; for “277 (VYQGHTALL; listed as Homo sapiens) [compound 277]”: “++++ (> = 75% = ++++)”; for “179 (MYDSYWRQF; listed as Homo sapiens) [compound 179]”: “++++ (> = 75% = ++++)”.
“227 (IFLDYEAGTLSF; listed as Homo sapiens) [compound 227]”: the Peptide exchange entry is reported as “++++ (> = 75% = ++++)”.
As to “172 (TYTTVPRVAF; listed as Homo sapiens) [compound 172]”, the Peptide exchange entry is listed as “++++ (> = 75% = ++++)”.
As to “175 (YYEVHKELF; listed as Homo sapiens) [compound 175]”, the Peptide exchange entry is listed as “++++ (> = 75% = ++++)”.
Turning to “228 (KYTSWYVAL; listed as Homo sapiens) [compound 228]”, the Peptide exchange entry is “++++ (> = 75% = ++++)”.
In the case of “276 (VYGFQWRHF; listed as Homo sapiens) [compound 276]”, the Peptide exchange result is “++++ (> = 75% = ++++)”.
Consider “211 (YYLEVGKTLI; listed as Homo sapiens) [compound 211]”, for which the Peptide exchange entry was “++++ (> = 75% = ++++)”.
Take “280 (RYPDNLKHLYL; listed as Homo sapiens) [compound 280]”: the Peptide exchange entry is on record as “++++ (> = 75% = ++++)”.
Regarding “177 (VYPWLGALL; listed as Homo sapiens) [compound 177]”, the Peptide exchange entry was “++++ (> = 75% = ++++)”.
Turning to “267 (KYMVYPQTF; listed as Homo sapiens) [compound 267]”, the Peptide exchange result is listed as “++++ (> = 75% = ++++)”.
Still for that read-out and setting: the same measure for “173 (IYSWILDHF; listed as Homo sapiens) [compound 173]”: “++++ (> = 75% = ++++)”.
The same measure, in the same setting: to “184 (VFQNFPLLF; listed as Homo sapiens) [compound 184]” belongs “++++ (> = 75% = ++++)”; to “289 (KYPVEWAKF; listed as Homo sapiens) [compound 289]”, “++++ (> = 75% = ++++)”.
Regarding “181 (LYLDIINLF; listed as Homo sapiens) [compound 181]”, the Peptide exchange entry is recorded as “++++ (> = 75% = ++++)”.
Consider “187 (TYLRDQHFL; listed as Homo sapiens) [compound 187]”, for which the Peptide exchange entry is listed as “++++ (> = 75% = ++++)”.
On the same count and under the same terms, to “282 (KFVDSTFYL; listed as Homo sapiens) [compound 282]” belongs “++++ (> = 75% = ++++)”.
As for “278 (RYISDQLFTNF; listed as Homo sapiens) [compound 278]”, the Peptide exchange entry is “++++ (> = 75% = ++++)”.
